Data set [1] in a line: FK506 blood concentration measurements (ELISA, whole blood). In kind it is in vivo, mice. On the procedure:
FK506 concentration in whole blood samples of mice was measured using colorimetric FK506 Elisa Kit (Abnova, Taipei, […]) according to the manufacturer's protocol. Briefly, 25 μL of whole blood samples and standard solutions containing 0, 2, 10 and 50 ng/mL FK506 were analyzed by OD measurements at 450 nanometer (nm) wavelength.

Another data set deals with ARNT proximal promoter. Briefly: ChIP PCR after Yy1 pull-down. The data set is classed as cell-based, mouse. As to conditions: cultured TECs, FK506 added to culture media. The procedure:
DNA and protein interaction was performed with the OneDay ChIP Kit (Diagenode, Seraing, Belgium) according to the manufacturer's instructions. 2×10^7 MCT cells have been used for each ChIP reaction. Cell lysates were sonicated using an ultrasonic processor S-4000 (Misonix, Farmingdale, USA). Immunoprecipitation was performed with a ChIP grade antibody against Yy1 (ab12132, Abcam Biochemicals, Cambridge, UK) and Arnt (3718, Cell Signaling, Danvers, USA). Enriched DNA was analyzed by qRT-PCR with EpiTect ChIP qPCR primers for genomic Arnt (Qiagen, Hilden, Germany), oligonucleotide sequences for genomic Alk3 are listed in Table 10.

Data set [2] relates to chronically injured hearts. Briefly: Angiotensin II (AT II)-induced cardiac hypertrophy and fibrosis. In kind it is in vivo, mice. The conditions noted are these: heart, 10 mg/kg subcutaneously per day starting one day prior. On the procedure: Eight to twelve weeks old C57BL/6 mice were anesthetized with isoflurane inhalation (2-3%), analgesia was performed by subcutaneous injection of 0.1 mg/kg body weight Buprenorphine per day. Osmotic minipumps (Alzet, Cupertino, USA) were loaded with AT II to continuously deliver 1.44 μg/kg body weight per day and implanted subcutaneously (123). Mice were sacrificed 14 days after implantation for further analyses. Mice were injected subcutaneously with 10 mg/kg body weight per day GPI-1046 (Santa Cruz Biotechnology, Dallas, USA) in DMSO once daily starting one day prior of surgery, control mice received equivalent volume of vehicle DMSO. […] For morphometric analysis of interstitial fibrosis, fibrotic areas were assessed by using cellSens (Olympus, Tokyo, Japan) software. Ten visual fields were selected randomly for each MTS stained section at 200× magnification and the relative interstitial fibrotic area was evaluated by using a 10 mm2 graticule. Tubular damage was analysed after PAS stain and graded according to a semi-quantitative score of 0 to 3 (0: normal, 1: mild, 2: moderate, 3: severe) at 400× magnification in a total number of 100 tubules per section (158). […] Cardiomyocyte diameters were determined from 100 random fibers in PAS-stained heart sections using cellSens (Olympus, Tokyo, Japan) software.

Data set [3] concerns chronically injured livers. Briefly: CCl4-induced liver fibrosis. In kind it is in vivo, mice. As to conditions: 10 mg/kg subcutaneously per day starting one day prior. The procedure:
Eight to twelve weeks-old C57BL/6 mice were intraperitoneally injected with 0.25 (first injection), 0.5 (second injection) and 1 mL/kg body weight CCI4 (25% v/v dissolved in sterile oil) twice a week (63). Mice were sacrificed after 42 days for further analyses. Mice were injected subcutaneously with 10 mg/kg body weight per day GPI-1046 (Santa Cruz Biotechnology, Dallas, USA) in DMSO once daily starting one day prior of surgery, control mice received equivalent volume of vehicle DMSO. For oral administration, GPI-1046 stock solution was diluted in glucose-water (5%) and orally applied on the basis of an average drinking volume of 3 mL and a body weight of 20 g per mouse. Three days after challenging with UUO, mice were treated orally with either vehicle buffer glucose (5%) or 30 mg/kg body weight per day GPI-1046, respectively. […] For morphometric analysis of interstitial fibrosis, fibrotic areas were assessed by using cellSens (Olympus, Tokyo, Japan) software. Ten visual fields were selected randomly for each MTS stained section at 200× magnification and the relative interstitial fibrotic area was evaluated by using a 10 mm2 graticule. Tubular damage was analysed after PAS stain and graded according to a semi-quantitative score of 0 to 3 (0: normal, 1: mild, 2: moderate, 3: severe) at 400× magnification in a total number of 100 tubules per section (158). […]

The test system of another data set is murine TECs. Briefly: Murine TEC cultures (MCT): mRNA expression (qRT-PCR), pSmad1/5/8 immunostaining, proliferation. In kind it is cell-based, mouse. The conditions noted are these: cultured TECs, GPI-1046 10 μM.

With `C=CC[C@@H]1/C=C(\C)C[C@H](C)C[C@H](OC)[C@H]2O[C@@](O)(C(=O)C(=O)N3CCCC[C@H]3C(=O)O[C@H](/C(C)=C/[C@@H]3CC[C@@H](O)[C@H](OC)C3)[C@H](C)[C@@H](O)CC1=O)[C@H](C)C[C@@H]2OC` [FK506, tacrolimus], the FK506 blood concentration worked out at 245 ± 73 pg/mL in data set [1] (0.02 mg/kg orally per day), 452 ± 71 pg/mL in data set [1] (0.075 mg/kg orally per day) and 535 ± 36 pg/mL in data set [1] (0.2 mg/kg orally per day). Also, the “YY1 binding to the ARNT proximal promoter” value with ARNT proximal promoter is “reduced”.

Consider `CCC(C)(C)C(=O)C(=O)N1CCC[C@H]1C(=O)OCCCc1cccnc1` [GPI-1046, 3-(3-pyridyl)-1-propyl-(2S)-1-(3,3-dimethyl-1,2-dioxopentyl)-2-pyrrolidinedine carboxylate], for which, in data set [2], the “ALK3-dependent canonical BMP signaling responses” value is on record as “equally effective” and the protection from fibrogenesis result is recorded as “equally effective”. In data set [3], the “ALK3-dependent canonical BMP signaling responses” value is listed as “equally effective” and the protection from fibrogenesis result is “equally effective”. For the same molecule, in the data set with murine TECs, the “canonical BMP signaling responses” value is “activation of canonical BMP signaling responses”; the “transcriptional induction of ARNT and ALK3 mRNA expression levels” value is recorded as “equally effective”.

The values are drawn from patent publication US12440479B2, “Prevention or treatment of chronic organ injury” (GEORG-AUGUST-UNIVERSITAET GOETTINGEN, STIFTUNG …, priority 2018, dated 2025).
